Assay results published in patent US8088941B2, “Glycogen synthase kinase-3 inhibitors” (Tel Aviv University Future Technology Development L.P., priority 2001, dated 2012).
Structures can show the parent of a compound that is named as a salt. Where two headings read alike, the source gives them in different places. Each block holds one compound with its values, some of them ahead of it.

Columns and labels:
[1] = target: T1, recombinant rabbit GSK-3β (Oryctolagus cuniculus, UniProt G1T8E2); test: In vitro GSK-3 inhibition assay with p9CREB peptide substrate; type: biochemical
Description: (§1) In vitro inhibition assays: Purified recombinant rabbit GSK-3β (Eldar-Finkelman et al., 1996) was incubated with peptide substrate PGS-1 ([…](p)EDEEE) (SEQ ID NO:1) or peptide substrate p9CREB (SEQ ID NO:2) and with phenyl phosphate, pyridoxal phosphate (P-5-P), GSC-1, GSC-2, GSC-3, GSC-4, GSC-5, GSC-6, GSC-7 or GSC-21 (structural formulas are depicted in FIG. 3), at indicated concentrations. The reaction mixture included Tris 50 mM (pH=7.3), 10 mM MgAc, ^32P[γ-ATP] (100 μM), 0.01% β-mercaptoethanol, and was incubated for 10 minutes at 30° C. Reactions were spotted on phosphocellulose paper (p81), washed with 100 mM phosphoric acid, and counted for radioactivity (as described in Eldar-Finkelman et al., 1996).
(§2) In still an additional assay, the GSK-3 inhibition activity of GSC-1, GSC-2, GSC-3, GSC-4, GSC-5, GSC-6, and GSC-7 was tested. The ability of GSK-3 to phosphorylate p9CREB peptide substrate was measured in the presence of indicated concentrations of these compounds. The results, presented in FIGS. 7a and 7b, represent the percentage of GSK-3 activity as compared with a control incubation without inhibitors and are mean of 2 independent experiments±SEM, where each point was assayed in triplicate.
The kinetic nature of the inhibitors was studied by measuring the initial velocity as a function of the substrate concentration at several inhibitor concentrations. Lineweaver-Burk plots of the GSK-3 inhibition by these inhibitors confirmed the assumption that these are substrate-competitive inhibitors (data not shown). FIG. 8 presents the Lineweaver-Burk plot of the GSK-3 inhibition by gsc-7, as an exemplary inhibitor, represented by phosphate incorporation into p9CREB peptide substrate (CPM). […] Each point is a mean of duplicated sample.
The ability of GSK-3 to phosphorylate p9CREB peptide substrate was measured in the presence of indicated concentrations of MP molecules, using the protocol described hereinabove in Example 3. The results, presented in FIG. 19, represent the percentage of GSK-3 activity in control incubation in which inhibitors were omitted. Results are mean of 2 independent experiments±SEM, where each point was assayed in duplicate.

[2] = target: GSK-3 (Oryctolagus cuniculus, UniProt A0A5F9DUX8); test: Time course analyses of peptide phosphorylation by GSK-3; type: biochemical
[3] = target: T1, recombinant rabbit GSK-3β; test: In vitro GSK-3 inhibition assay with PGS-1 peptide substrate; type: biochemical; conditions: for GSK-3 inhibition activity: preliminary inhibition assay, FIG. 5
Description: as §1
In vitro inhibition assays: In a preliminary inhibition assay, the GSK-3 inhibition activity of the known compounds phenyl phosphate, pyridoxal phosphate, GSC-1, GSC-2 and GSC-3 was tested as described hereinabove.
as §2, with “In” for “In still”, “additional inhibition” for “additional”, “GSC-4,” for “GSC-4, GSC-5, GSC-6,”, “GSC-21” for “GSC-7”, “PGS-1” for “p9CREB”, “FIG. 6,” for “FIGS. 7a and 7b,”

[4] = target: CDK-2 (Homo sapiens, UniProt P24941); test: CDK-2 kinase activity with histone H1 substrate (selectivity); type: biochemical; conditions: final concentration of 2 mM, FIG. 9
Description: The effect of GSC-4, GSC-5 and GSC-7 (100 and 200 μM) on other protein kinases was tested by incubating CDK-2 (1 unit) with a reaction mixture similar to that described hereinabove and containing histone H1 substrate (5 μg). The reactions were boiled with SDS sample buffer, separated on gel electrophoresis and autoradiographed.
The selectivity of the novel compounds towards GSK-3 was measured by evaluating the inhibition of CDK-2, a kinase closely related to GSK-3. Thus, CDK-2 activity was assayed in the presence of ^32P[γ-ATP] and histone H1 as a substrate. GSC-4, GSC-5 and GSC-7 were added at a final concentration of 2 mM.

[5] = test system: Mice adipocytes; test: Glucose uptake in isolated adipocytes; type: cell-based; conditions: mouse primary adipocytes, 2.5 hours
Description: Glucose uptake in isolated adipocytes: Mice adipocytes were isolated from epididymal fat pad by digestion with 0.8 mg/ml collagenase (Worthington Biochemical) as described previously (Lawrence et al., 1977). Digested fat pads were passed through nylon mesh and cells were washed 3 times with Krebs-bicarbonate buffer (pH=7.4) containing 1% bovine serum albumin (Fraction V, Boehringer Mannheim, Germany), 10 mM HEPES (pH=7.3), 5 mM glucose and 200 nM adenosine. Cells were incubated with GSC-4 and GSC-21 at indicated concentrations for 2.5 hours, followed by addition of 2-deoxy [^3H] glucose (0.5 μci/vial) for 10 minutes. The assay was terminated by centrifugation of cells through dinonylphthalate (ICN, USA). ^3H was thereafter quantitated by liquid scintillation analyzer (Packard). Nonspecific uptake of 2-deoxy-[^3H] glucose was determined by the addition of cytochalasin B (50 μM) 30 minutes prior to the addition of radioactive material.
Glucose Uptake: The ability of the newly designed compounds GSC-4 and GSC-21 to promote glucose uptake was tested in mouse primary adipocytes as described hereinabove. The relative [^3H] 2-deoxy glucose incorporation observed in non-treated adipocytes was normalized to 1 unit and the values obtained for [^3H] 2-deoxy glucose in adipocytes treated with GSC-4 or GSC-21 are presented as fold activation over cells treated with the peptide control, and are the mean of 6 independent experiments±SEM, where each point was assayed in triplicate.

[6] = test system: glycogen synthase; test: Activation of glycogen synthase in C2C12 cells; type: cell-based; conditions: 2.5 hours, FIG. 10
Description: Activation of glycogen synthase by GSK-3 inhibitors: Activation of glycogen synthase can serve as a good marker for inhibition of GSK-3. […] Thus, activation of glycogen synthase by GSC-5 and GSC-7 was tested in C2C12 myotubes. C2C12 cells were treated with GSC-5 and GSC-7 for 2.5 hours at indicated concentrations and lysate supernatants were thereafter assayed for glycogen synthase activity. The activity of glycogen synthase in cells treated with vehicle DMSO (0.1% DMSO) was normalized to 1 unit and the values for glycogen synthase activity observed in cells treated with GSK-3 inhibitors are presented as fold stimulation over the cells treated with vehicle […].
Activation of glycogen synthase by GSK-3 inhibitors: Activation of glycogen synthase activity in C2C12 cells treated with GSC-5 and GSC-7 was assayed as described hereinabove. The activity of glycogen synthase in cells treated with vehicle DMSO (0.1% DMSO) was normalized to 1 unit and the values for glycogen synthase activity observed in cells treated with GSK-3 (GS4 (hollow circles) GS6 (filled circles) are presented as fold stimulation over the cells treated with vehicle 0.1% HCL.

[7] = MP molecules, p9CREB peptide substrate, FIG. 19

T1 sequence (G1T8E2 1-432): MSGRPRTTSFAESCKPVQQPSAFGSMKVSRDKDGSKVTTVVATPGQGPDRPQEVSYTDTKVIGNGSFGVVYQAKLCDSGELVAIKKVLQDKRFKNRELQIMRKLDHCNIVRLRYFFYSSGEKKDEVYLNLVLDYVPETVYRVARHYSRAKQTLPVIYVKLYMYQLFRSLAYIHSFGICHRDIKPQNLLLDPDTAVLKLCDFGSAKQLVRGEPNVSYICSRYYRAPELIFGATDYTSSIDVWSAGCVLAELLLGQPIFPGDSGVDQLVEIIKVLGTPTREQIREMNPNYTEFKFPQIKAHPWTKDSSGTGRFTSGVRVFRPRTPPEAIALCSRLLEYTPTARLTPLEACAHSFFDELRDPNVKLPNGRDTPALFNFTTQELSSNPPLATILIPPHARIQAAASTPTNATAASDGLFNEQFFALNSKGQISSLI
Sequence of GSK-3 (A0A5F9DUX8 entry or part of it): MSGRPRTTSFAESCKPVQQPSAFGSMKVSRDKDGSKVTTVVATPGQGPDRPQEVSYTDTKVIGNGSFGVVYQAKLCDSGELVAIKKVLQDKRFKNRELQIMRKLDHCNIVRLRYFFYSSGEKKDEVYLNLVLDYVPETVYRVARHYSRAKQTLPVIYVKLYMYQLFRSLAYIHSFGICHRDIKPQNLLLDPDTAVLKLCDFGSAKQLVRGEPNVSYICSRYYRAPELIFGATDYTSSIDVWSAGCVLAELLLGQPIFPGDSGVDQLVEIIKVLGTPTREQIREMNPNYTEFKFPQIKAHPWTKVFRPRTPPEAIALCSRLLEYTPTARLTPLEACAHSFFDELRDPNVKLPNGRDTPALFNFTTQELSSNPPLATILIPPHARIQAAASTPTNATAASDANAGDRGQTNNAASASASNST

Compound: N=C(N)Nc1ccc(-c2cn(-c3cccc(COP(=O)(O)O)c3)nn2)cc1 [MP-4, 3-(4-(4-guanidinophenyl)-1,2,3-triazol-1-yl)benzyl phosphoric acid hydrochloride]
- IC50 [1, 7]: ~1000 µM

Compound: ILSRRPSYR [9CREB]
- Phosphorylation of peptide by GSK-3 (substrate) [2]: completely failed to be phosphorylated

Compound: ILSRRPEYR [9ECREB]
- Phosphorylation of peptide by GSK-3 (substrate) [2]: completely failed to be phosphorylated

Compound: N=C(N)Nc1cccc(COP(=O)(O)O)c1 [GSC-4, 3-guanidinobenzyl phosphate]
- GSK-3 inhibition activity (ranking) ([3]; PGS-1 peptide substrate, FIG. 6): most active compounds
- IC50 ([1]; p9CREB peptide substrate, FIGS. 7a-b, most active compounds): 500 µM
- Inhibition of histone H1 phosphorylation by CDK-2 [4]: no inhibition of histone H1 phosphorylation was observed
- Glucose uptake ([3H] 2-deoxy glucose incorporation), fold activation ([5]; 10 μM): ~2 fold

Compound: O=P(O)(O)Oc1ccccc1 [phenyl phosphate, reference compound]
- GSK-3 inhibition activity [3]: exerted an inhibition activity

Compound: N=C(N)Nc1cccc(-c2cn(-c3cccc(COP(=O)(O)O)c3)nn2)c1 [MP-1, 3-(4-(3-guanidinophenyl)-1,2,3-triazol-1-yl)benzyl phosphoric acid hydrochloride]
- IC50 [1, 7]: ~1000 µM

Compound: NCCc1cc(CCN)cc(COP(=O)(O)O)c1 [GSC-21, 3,5-bis(2-aminoethyl)benzyl phosphate]
- Glucose uptake ([3H] 2-deoxy glucose incorporation), fold activation ([5]; 0.5 μM): 1.7 fold
- Glucose uptake ([3H] 2-deoxy glucose incorporation), fold activation ([5]; 5 μM): 2.5 fold

Compound: N=C(N)NCc1cccc(COP(=O)(O)O)c1 [GSC-5, 3-(guanidinomethy)benzyl phosphate]
- Inhibition of histone H1 phosphorylation by CDK-2 [4]: no inhibition of histone H1 phosphorylation was observed
- Glycogen synthase activity, fold stimulation over vehicle [6]: 1.5 fold

Compound: Cc1ncc(COP(=O)(O)O)c(C=O)c1O [pyridoxal phosphate, reference compound]
- GSK-3 inhibition activity [3]: exerted an inhibition activity

The next lines start with results.

- GSK-3 inhibition activity [3]: exerted an inhibition activity
Compound: Cc1ccc(COP(=O)(O)O)cc1 [GSC-2, p-methyl benzyl phosphate]

- IC50 [1]: 500 µM
- Kinetic nature of inhibition (Lineweaver-Burk plot) ([1]; phosphate incorporation into p9CREB, FIG. 8): competitive specific inhibitor
Compound: N=C(N)Nc1cc(COP(=O)(O)O)cc(NC(=N)N)c1 [GSC-7, 3,5-bisguanidino benzyl phosphate]
- Inhibition of histone H1 phosphorylation by CDK-2 [4]: no inhibition of histone H1 phosphorylation was observed
- Glycogen synthase activity, fold stimulation over vehicle [6]: 1.8 fold
